Common to all, as to experiment: cell-based
One assay deals with hNav1.7 (Homo sapiens, UniProt Q15858). The class given is cell-based.
A further assay concerns the target hNav1.3 (Homo sapiens, UniProt Q9NY46).
The target of the next assay is hNav1.5 (Homo sapiens, UniProt Q14524).
Where [1] appears, read: IonWorks Quattro, clamped to −110 mV, depolarized to −10 mV, 5 min after compound, n=2, read-out: IWQ Use Nav1.7.
Setting [2] is: IonWorks Quattro, clamped to −110 mV, depolarized to −10 mV, 5 min after compound, n=2, read-out: IWQ Use Nav1.3.
Where [3] appears, read: IonWorks Quattro, clamped to −110 mV, depolarized to −10 mV, 5 min after compound, n=2, read-out: IWQ Use Nav1.5.

Read-outs that look alike come from different tables or passages of the source. Positions of bridges follow the written chain, without caps; N, C: chain ends. Residues, ends and D or L forms follow the SMILES beside them.

Chain of hNav1.5 (Q14524 whole entry, looked up): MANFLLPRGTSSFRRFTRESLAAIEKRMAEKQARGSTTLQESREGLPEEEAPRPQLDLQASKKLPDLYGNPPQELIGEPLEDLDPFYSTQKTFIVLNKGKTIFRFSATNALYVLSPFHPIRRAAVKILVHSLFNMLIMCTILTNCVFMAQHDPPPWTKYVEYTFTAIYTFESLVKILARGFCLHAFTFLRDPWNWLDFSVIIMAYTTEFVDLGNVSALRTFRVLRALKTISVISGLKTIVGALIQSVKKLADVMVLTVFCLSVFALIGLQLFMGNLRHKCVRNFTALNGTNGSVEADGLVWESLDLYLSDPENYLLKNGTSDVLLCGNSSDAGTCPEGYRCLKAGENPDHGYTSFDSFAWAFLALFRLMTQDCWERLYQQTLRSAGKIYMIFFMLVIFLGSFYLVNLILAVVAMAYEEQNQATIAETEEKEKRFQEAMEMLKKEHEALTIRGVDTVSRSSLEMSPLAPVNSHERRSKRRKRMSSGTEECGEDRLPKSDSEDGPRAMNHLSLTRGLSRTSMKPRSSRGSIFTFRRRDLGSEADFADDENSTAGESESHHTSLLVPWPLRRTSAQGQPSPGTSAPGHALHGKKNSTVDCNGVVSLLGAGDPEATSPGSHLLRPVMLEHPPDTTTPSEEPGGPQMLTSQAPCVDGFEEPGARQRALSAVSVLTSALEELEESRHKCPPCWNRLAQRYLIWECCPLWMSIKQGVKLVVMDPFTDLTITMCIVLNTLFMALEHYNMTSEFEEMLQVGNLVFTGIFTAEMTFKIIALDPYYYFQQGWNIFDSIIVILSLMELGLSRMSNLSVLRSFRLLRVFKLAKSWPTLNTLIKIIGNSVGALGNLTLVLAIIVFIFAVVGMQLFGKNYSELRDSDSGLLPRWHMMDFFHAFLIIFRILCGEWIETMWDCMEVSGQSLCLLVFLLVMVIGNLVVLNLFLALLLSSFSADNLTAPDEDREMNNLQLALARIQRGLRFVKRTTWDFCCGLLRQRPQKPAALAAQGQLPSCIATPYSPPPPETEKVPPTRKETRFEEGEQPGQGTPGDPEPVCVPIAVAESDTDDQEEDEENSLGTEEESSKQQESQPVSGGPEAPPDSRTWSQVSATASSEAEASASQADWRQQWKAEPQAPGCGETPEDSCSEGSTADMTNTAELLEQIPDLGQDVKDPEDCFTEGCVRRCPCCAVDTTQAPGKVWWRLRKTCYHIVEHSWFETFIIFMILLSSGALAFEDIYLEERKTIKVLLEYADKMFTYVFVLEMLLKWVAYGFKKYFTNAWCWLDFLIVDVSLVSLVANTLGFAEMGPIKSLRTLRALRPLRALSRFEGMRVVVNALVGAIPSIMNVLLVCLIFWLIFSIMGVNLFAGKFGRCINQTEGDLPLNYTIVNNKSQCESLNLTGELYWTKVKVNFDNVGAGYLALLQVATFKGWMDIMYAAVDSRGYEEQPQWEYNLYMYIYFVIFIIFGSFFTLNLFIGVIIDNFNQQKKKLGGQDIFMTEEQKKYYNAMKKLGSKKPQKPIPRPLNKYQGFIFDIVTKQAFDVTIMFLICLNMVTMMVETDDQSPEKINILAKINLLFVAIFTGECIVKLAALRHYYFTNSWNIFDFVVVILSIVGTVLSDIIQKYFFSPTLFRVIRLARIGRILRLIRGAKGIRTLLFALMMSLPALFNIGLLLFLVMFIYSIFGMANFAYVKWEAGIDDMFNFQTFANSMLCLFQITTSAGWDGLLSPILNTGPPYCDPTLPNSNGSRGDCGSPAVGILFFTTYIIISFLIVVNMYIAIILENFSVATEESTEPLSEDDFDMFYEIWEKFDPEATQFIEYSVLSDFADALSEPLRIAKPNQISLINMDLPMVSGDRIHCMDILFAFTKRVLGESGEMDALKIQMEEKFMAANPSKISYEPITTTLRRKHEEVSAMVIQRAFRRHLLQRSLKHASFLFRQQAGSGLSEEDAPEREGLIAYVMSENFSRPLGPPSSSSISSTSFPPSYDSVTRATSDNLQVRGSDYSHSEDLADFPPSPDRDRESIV
Chain of hNav1.3 (Q9NY46 whole entry, looked up): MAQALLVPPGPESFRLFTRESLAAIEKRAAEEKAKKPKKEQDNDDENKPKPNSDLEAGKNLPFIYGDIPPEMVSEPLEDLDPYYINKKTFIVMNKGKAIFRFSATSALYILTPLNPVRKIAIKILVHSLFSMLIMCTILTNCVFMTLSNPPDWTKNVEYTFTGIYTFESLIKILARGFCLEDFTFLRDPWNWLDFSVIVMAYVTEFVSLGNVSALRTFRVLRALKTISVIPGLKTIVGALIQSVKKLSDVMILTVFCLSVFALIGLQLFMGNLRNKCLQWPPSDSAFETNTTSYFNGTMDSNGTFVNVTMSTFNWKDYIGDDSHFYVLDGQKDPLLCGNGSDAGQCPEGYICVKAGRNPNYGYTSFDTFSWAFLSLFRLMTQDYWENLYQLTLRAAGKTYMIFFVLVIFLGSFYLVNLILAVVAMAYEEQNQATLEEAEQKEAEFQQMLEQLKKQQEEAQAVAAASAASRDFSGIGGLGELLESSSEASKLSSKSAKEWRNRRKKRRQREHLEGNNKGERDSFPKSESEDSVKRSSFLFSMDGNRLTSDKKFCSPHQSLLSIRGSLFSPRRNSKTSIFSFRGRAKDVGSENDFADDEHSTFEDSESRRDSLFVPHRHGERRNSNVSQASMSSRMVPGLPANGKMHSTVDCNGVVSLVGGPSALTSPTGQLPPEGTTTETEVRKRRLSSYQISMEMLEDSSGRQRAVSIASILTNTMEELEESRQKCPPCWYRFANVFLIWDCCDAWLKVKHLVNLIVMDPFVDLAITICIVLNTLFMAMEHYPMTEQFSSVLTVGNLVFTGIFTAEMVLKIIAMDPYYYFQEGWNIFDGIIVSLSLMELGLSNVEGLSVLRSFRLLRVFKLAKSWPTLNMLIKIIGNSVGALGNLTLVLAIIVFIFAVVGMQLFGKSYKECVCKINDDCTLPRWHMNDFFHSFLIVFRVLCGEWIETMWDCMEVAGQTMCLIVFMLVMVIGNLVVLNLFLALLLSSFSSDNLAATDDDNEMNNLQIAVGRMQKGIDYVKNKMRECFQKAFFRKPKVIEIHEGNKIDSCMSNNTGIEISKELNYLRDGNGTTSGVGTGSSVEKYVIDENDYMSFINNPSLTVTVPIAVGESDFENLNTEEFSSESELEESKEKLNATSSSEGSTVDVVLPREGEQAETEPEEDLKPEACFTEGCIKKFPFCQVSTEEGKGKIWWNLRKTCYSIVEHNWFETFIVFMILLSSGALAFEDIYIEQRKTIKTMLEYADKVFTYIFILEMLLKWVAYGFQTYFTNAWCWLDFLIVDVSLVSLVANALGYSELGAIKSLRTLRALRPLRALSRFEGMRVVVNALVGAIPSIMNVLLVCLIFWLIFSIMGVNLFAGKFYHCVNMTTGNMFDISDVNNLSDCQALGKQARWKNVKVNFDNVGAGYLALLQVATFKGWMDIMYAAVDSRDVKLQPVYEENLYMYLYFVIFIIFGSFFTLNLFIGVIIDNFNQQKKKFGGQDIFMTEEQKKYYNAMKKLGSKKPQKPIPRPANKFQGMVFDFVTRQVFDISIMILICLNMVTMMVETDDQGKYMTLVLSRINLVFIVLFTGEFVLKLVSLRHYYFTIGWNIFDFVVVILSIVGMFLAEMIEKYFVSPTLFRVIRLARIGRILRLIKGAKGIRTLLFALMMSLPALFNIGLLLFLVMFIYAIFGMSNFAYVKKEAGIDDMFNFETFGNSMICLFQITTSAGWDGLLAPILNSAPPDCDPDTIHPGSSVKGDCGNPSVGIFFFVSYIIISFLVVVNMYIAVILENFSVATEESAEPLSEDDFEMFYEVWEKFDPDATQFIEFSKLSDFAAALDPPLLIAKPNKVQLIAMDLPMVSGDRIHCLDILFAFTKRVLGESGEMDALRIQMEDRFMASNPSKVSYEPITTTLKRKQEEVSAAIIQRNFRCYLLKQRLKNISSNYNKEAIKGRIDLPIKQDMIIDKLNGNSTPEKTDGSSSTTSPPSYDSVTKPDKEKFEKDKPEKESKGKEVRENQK

With `CC[C@H](C)[C@@H]1NC(=O)[C@@H]2CSSC[C@@H]3NC(=O)[C@H](C(C)C)NC(=O)[C@H](CC(C)C)NC(=O)[C@H](CC(N)=O)NC(=O)[C@@H]4CCCN4C(=O)[C@H](CCCNC(=N)N)NC(=O)[C@H](CSSC[C@H](NC(=O)[C@@H]4CCCN4)C(=O)N[C@@H](CC(C)C)C(=O)NCC(=O)N[C@@H](Cc4ccccc4)C(=O)N[C@@H](CCSC)C(=O)N[C@@H](CCCNC(=N)N)C(=O)N[C@@H](CCCCN)C(=O)N2)NC(=O)[C@H](CSSC[C@@H](C(=O)N[C@@H](CCCCN)C(=O)N[C@@H](Cc2ccc(O)cc2)C(=O)N[C@H](C(=O)N[C@@H](Cc2ccccc2)C(N)=O)C(C)C)NC(=O)[C@H](Cc2c[nH]c4ccccc24)NC(=O)[C@H](CCCCN)NC(=O)[C@H](Cc2c[nH]cn2)NC(=O)[C@H]([C@@H](C)O)NC(=O)[C@H](CCCNC(=N)N)NC(=O)[C@H](CO)NC3=O)NC(=O)[C@H](CCCCN)NC(=O)[C@H](CC(=O)O)NC(=O)[C@H](CC(N)=O)NC(=O)[C@H](CC(=O)O)NC(=O)[C@@H]2CCCN2C1=O` [SEQ ID NO: 190] (H-PCLGFMRKCIPDNDKCCRPNLVCSRTHKWCKYVF-NH2; disulfide 2-17, 9-23, 16-30), the IC50 at hNav1.7 (setting [1]) stood at 90 nM; at hNav1.3 (setting [2]), 40 nM; at hNav1.5 (setting [3]), 9.73 µM.
For `CC[C@H](C)[C@@H]1NC(=O)[C@@H]2CSSC[C@@H]3NC(=O)[C@H](C(C)C)NC(=O)[C@H](CC(C)C)NC(=O)[C@H](CC(N)=O)NC(=O)[C@@H]4CCCN4C(=O)[C@H](CCCNC(=N)N)NC(=O)[C@H](CSSC[C@H](NC(=O)[C@@H](N)CO)C(=O)N[C@@H](CC(C)C)C(=O)NCC(=O)N[C@@H](Cc4ccccc4)C(=O)N[C@@H](CCSC)C(=O)N[C@@H](CCCNC(=N)N)C(=O)N[C@@H](CCCCN)C(=O)N2)NC(=O)[C@H](CSSC[C@@H](C(=O)N[C@@H](CCCCN)C(=O)N[C@@H](Cc2ccc(O)cc2)C(=O)N[C@H](C(=O)N[C@@H](Cc2ccccc2)C(N)=O)C(C)C)NC(=O)[C@H](Cc2c[nH]c4ccccc24)NC(=O)[C@H](CCCCN)NC(=O)[C@H](Cc2c[nH]cn2)NC(=O)[C@H]([C@@H](C)O)NC(=O)[C@H](CCCNC(=N)N)NC(=O)[C@H](CO)NC3=O)NC(=O)[C@H](CCCCN)NC(=O)[C@H](CC(=O)O)NC(=O)[C@H](CC(N)=O)NC(=O)[C@H](CC(=O)O)NC(=O)[C@@H]2CCCN2C1=O` [SEQ ID NO: 191] (H-SCLGFMRKCIPDNDKCCRPNLVCSRTHKWCKYVF-NH2; disulfide 2-17, 9-23, 16-30), in that order: 70 nM, 50 nM and 9.4 µM.
For `CC[C@H](C)[C@@H]1NC(=O)[C@@H]2CSSC[C@@H]3NC(=O)[C@H](C(C)C)NC(=O)[C@H](CC(C)C)NC(=O)[C@H](CC(N)=O)NC(=O)[C@@H]4CCCN4C(=O)[C@H](CCCNC(=N)N)NC(=O)[C@H](CSSC[C@H](NC(=O)[C@@H](N)[C@@H](C)O)C(=O)N[C@@H](CC(C)C)C(=O)NCC(=O)N[C@@H](Cc4ccccc4)C(=O)N[C@@H](CCSC)C(=O)N[C@@H](CCCNC(=N)N)C(=O)N[C@@H](CCCCN)C(=O)N2)NC(=O)[C@H](CSSC[C@@H](C(=O)N[C@@H](CCCCN)C(=O)N[C@@H](Cc2ccc(O)cc2)C(=O)N[C@H](C(=O)N[C@@H](Cc2ccccc2)C(N)=O)C(C)C)NC(=O)[C@H](Cc2c[nH]c4ccccc24)NC(=O)[C@H](CCCCN)NC(=O)[C@H](Cc2c[nH]cn2)NC(=O)[C@H]([C@@H](C)O)NC(=O)[C@H](CCCNC(=N)N)NC(=O)[C@H](CO)NC3=O)NC(=O)[C@H](CCCCN)NC(=O)[C@H](CC(=O)O)NC(=O)[C@H](CC(N)=O)NC(=O)[C@H](CC(=O)O)NC(=O)[C@@H]2CCCN2C1=O` [SEQ ID NO: 192] (H-TCLGFMRKCIPDNDKCCRPNLVCSRTHKWCKYVF-NH2; disulfide 2-17, 9-23, 16-30), in that order: 110 nM, 70 nM and 9.21 µM.
`CC[C@H](C)[C@@H]1NC(=O)[C@@H]2CSSC[C@@H]3NC(=O)[C@H](C(C)C)NC(=O)[C@H](CC(C)C)NC(=O)[C@H](CC(N)=O)NC(=O)[C@@H]4CCCN4C(=O)[C@H](CCCNC(=N)N)NC(=O)[C@H](CSSC[C@H](NC(=O)[C@@H](N)CC(=O)O)C(=O)N[C@@H](CC(C)C)C(=O)NCC(=O)N[C@@H](C)C(=O)N[C@@H](Cc4ccccc4)C(=O)N[C@@H](CCCNC(=N)N)C(=O)N[C@@H](CCCCN)C(=O)N2)NC(=O)[C@H](CSSC[C@@H](C(=O)N[C@@H](CCCCN)C(=O)N[C@@H](Cc2ccc(O)cc2)C(=O)N[C@H](C(=O)N[C@@H](Cc2ccccc2)C(N)=O)C(C)C)NC(=O)[C@H](Cc2c[nH]c4ccccc24)NC(=O)[C@H](CCCNC(=N)N)NC(=O)[C@H](Cc2cnc[nH]2)NC(=O)[C@H](CC(C)C)NC(=O)[C@H](CCCNC(=N)N)NC(=O)[C@H](CO)NC3=O)NC(=O)[C@H](CCCCN)NC(=O)[C@H](CC(=O)O)NC(=O)[C@H](CC(N)=O)NC(=O)[C@H](CC(=O)O)NC(=O)[C@@H]2CCCN2C1=O` [SEQ ID NO: 262, [Ala5,Phe6,Leu26,Arg28]GpTx-1] (H-DCLGAFRKCIPDNDKCCRPNLVCSRLHRWCKYVF-NH2; disulfide 2-17, 9-23, 16-30): the results for the IC50 against hNav1.7, at hNav1.3 and on hNav1.5 (IWQ Use Nav1.5 (μM)) were 50 nM, 40 nM and 5 µM, respectively.
In the case of `CC[C@H](C)[C@@H]1NC(=O)[C@@H]2CSSC[C@@H]3NC(=O)[C@H](C(C)C)NC(=O)[C@H](CC(C)C)NC(=O)[C@H](CC(N)=O)NC(=O)[C@@H]4CCCN4C(=O)[C@H](CCCNC(=N)N)NC(=O)[C@H](CSSC[C@H](NC(=O)[C@@H](N)CC(=O)O)C(=O)N[C@@H](CC(C)C)C(=O)NCC(=O)N[C@@H](Cc4cn(C)c5ccccc45)C(=O)N[C@@H](CCSC)C(=O)N[C@@H](CCCNC(=N)N)C(=O)N[C@@H](CCCCN)C(=O)N2)NC(=O)[C@H](CSSC[C@@H](C(=O)N[C@@H](CCCCN)C(=O)N[C@@H](Cc2ccc(O)cc2)C(=O)N[C@H](C(=O)N[C@@H](Cc2ccccc2)C(N)=O)C(C)C)NC(=O)[C@H](Cc2c[nH]c4ccccc24)NC(=O)[C@H](CCCCN)NC(=O)[C@H](Cc2c[nH]cn2)NC(=O)[C@H]([C@@H](C)O)NC(=O)[C@H](CCCNC(=N)N)NC(=O)[C@H](CO)NC3=O)NC(=O)[C@H](CCCCN)NC(=O)[C@H](CC(=O)O)NC(=O)[C@H](CC(N)=O)NC(=O)[C@H](CC(=O)O)NC(=O)[C@@H]2CCCN2C1=O` [SEQ ID NO: 264], the IC50 at hNav1.7 (setting [1]) amounted to 90 nM; on hNav1.3 (setting [2]), 90 nM; at hNav1.5 (setting [3]) it was 8.17 µM.
As for `CC[C@H](C)[C@@H]1NC(=O)[C@@H]2CSSC[C@@H]3NC(=O)[C@H](C(C)C)NC(=O)[C@H](CC(C)C)NC(=O)[C@H](CC(N)=O)NC(=O)[C@@H]4CCCN4C(=O)[C@H](CCCNC(=N)N)NC(=O)[C@H](CSSC[C@H](NC(=O)[C@@H](N)CC(=O)O)C(=O)N[C@@H](CC(C)C)C(=O)NCC(=O)NCC(=O)N[C@@H](CCSC)C(=O)N[C@@H](CCCNC(=N)N)C(=O)N[C@@H](CCCCN)C(=O)N2)NC(=O)[C@H](CSSC[C@@H](C(=O)N[C@@H](CCCCN)C(=O)N[C@@H](Cc2ccc(O)cc2)C(=O)N[C@H](C(=O)N[C@@H](Cc2ccccc2)C(N)=O)C(C)C)NC(=O)[C@H](Cc2c[nH]c4ccccc24)NC(=O)[C@H](CCCCN)NC(=O)[C@H](Cc2cnc[nH]2)NC(=O)[C@H]([C@@H](C)O)NC(=O)[C@H](CCCNC(=N)N)NC(=O)[C@H](CO)NC3=O)NC(=O)[C@H](CCCCN)NC(=O)[C@H](CC(=O)O)NC(=O)[C@H](CC(N)=O)NC(=O)[C@H](CC(=O)O)NC(=O)[C@@H]2CCCN2C1=O` [SEQ ID NO: 265] (H-DCLGGMRKCIPDNDKCCRPNLVCSRTHKWCKYVF-NH2; disulfide 2-17, 9-23, 16-30), the IC50 on hNav1.7 (setting [1]) was 750 nM; at hNav1.3 (setting [2]), 1240 nM; on hNav1.5 (setting [3]), 7.47 µM.
On to `CC[C@H](C)[C@@H]1NC(=O)[C@@H]2CSSC[C@@H]3NC(=O)[C@H](C(C)C)NC(=O)[C@H](CC(C)C)NC(=O)[C@H](CC(N)=O)NC(=O)[C@@H]4CCCN4C(=O)[C@H](CCCNC(=N)N)NC(=O)[C@H](CSSC[C@H](NC(=O)[C@@H](N)CC(=O)O)C(=O)N[C@@H](CC(C)C)C(=O)NCC(=O)N[C@@H](Cc4c[nH]cn4)C(=O)N[C@@H](CCSC)C(=O)N[C@@H](CCCNC(=N)N)C(=O)N[C@@H](CCCCN)C(=O)N2)NC(=O)[C@H](CSSC[C@@H](C(=O)N[C@@H](CCCCN)C(=O)N[C@@H](Cc2ccc(O)cc2)C(=O)N[C@H](C(=O)N[C@@H](Cc2ccccc2)C(N)=O)C(C)C)NC(=O)[C@H](Cc2c[nH]c4ccccc24)NC(=O)[C@H](CCCCN)NC(=O)[C@H](Cc2c[nH]cn2)NC(=O)[C@H]([C@@H](C)O)NC(=O)[C@H](CCCNC(=N)N)NC(=O)[C@H](CO)NC3=O)NC(=O)[C@H](CCCCN)NC(=O)[C@H](CC(=O)O)NC(=O)[C@H](CC(N)=O)NC(=O)[C@H](CC(=O)O)NC(=O)[C@@H]2CCCN2C1=O` [SEQ ID NO: 266] (H-DCLGHMRKCIPDNDKCCRPNLVCSRTHKWCKYVF-NH2; disulfide 2-17, 9-23, 16-30), for which the IC50 on hNav1.7 (setting [1]) came to 4740 nM; at hNav1.3 (setting [2]) it was 8370 nM; on hNav1.5 (setting [3]), 6.62 µM.

These data come from patent US9340590B2 (priority 2011, dated 2016).
